Reference: publication PMC5321639, “Design and pharmacodynamics of recombinant NZ2114 histidine mutants with improved activity against methicillin-resistant Staphylococcus aureus” (AMB Express, 2017)
In brackets after ≈: the same amount, converted by molar mass. Several values for one entry are separate records, joined by “and”; a condition that tells them apart may be missing. Equal values may be shown once. Where a SMILES comes first, the peptide text is derived from it. Bridges are numbered along the chain shown (N, C = ends).

Columns and labels:
S. aureus ATCC43300 [1] = test: Effect of pH on activity (MIC); assay type: cell-based, Staphylococcus aureus; settings: then MIC assay
Protocol: (§1) The peptide solutions were diluted twofold with the range of final concentrations were 0.015–32 µg/ml (0.003–7.273 µM) for purified H1, H2, H3, H6, and H8. The test strains were grown in MHB medium at 37 °C to an OD600 of 0.4 and diluted to 1 × 10^5 CFU/ml. The 10 µl peptide and 90 µl cell suspension were added into each well. All assays were performed in triplicate. The antimicrobial activity of NZ2114 and vancomycin were tested as positive controls. The plates were incubated at 37 °C for 18–24 h. MIC was defined as the lowest peptide concentration of ones at which there was no visible growth (Tian et al. [2009]).
(§2) The effect of pH, temperature, NaCl concentration and proteinase on the activity of peptides was evaluated. Peptides were diluted twofold, then adjusted to a pH range from 2.0 to 10.0 and incubated at 37 °C for 4 h. The thermal stability of purified peptides was determined after 1-h incubation of peptides at 4, 20, 40, 60, 80 and 100 °C in deionized water, respectively. Aliquots of peptides were incubated in various proteinases solutions [pepsin (pH 2.0), trypsin (pH 8.0), proteinase K (pH 7.0)] at a ratio of 1:10, w/w (proteinase: peptide) at 37 °C for 3 h. For the ion stability, peptides were incubated in 50, 100, 200, 300, 400, 500 mM sodium chloride solutions, respectively. Other methods and conditions were prepared as the MIC assay described above (Li et al. [2015]; Qu et al. [2016]).

S. aureus ATCC43300 [2] = test: Effect of proteinases on activity (MIC); assay type: cell-based, Staphylococcus aureus; settings: trypsin (pH 8.0), 1:10 w/w proteinase:peptide, 37 °C for 3 h, then MIC assay
Protocol: as §1, §2

mice red blood cells = test: Hemolytic assay; assay type: cell-based; settings: 0.23 to 7.27 μM (1–32 μg/ml), 37 °C 1 h
Protocol: The mice blood cells were washed three times in stroke-physiological saline solution (0.9% NaCl) and centrifuged at 4 °C, 2000 rpm for 5 min. A 50-μl cell was diluted to 8% (v/v), added into 96-well plates, and mixed with 50-μl peptide to the final concentrations ranging from […]. The plates were incubated at 37 °C for 1 h, and centrifuged at 4 °C, 5000 rpm for 5 min. The absorbance of supernatants was measured at 540 nm, and 0 and 100% hemolysis was measured by 0.9% NaCl and 0.1% Triton X-100, respectively. The hemolysis percentages were calculated by the following equation: [(Abs540 nm in H1, H2, H3 solution − Abs540 nm in 0.9% NaCl)/(Abs540 nm in 0.1% Triton X-100 − Abs540 nm in 0.9% NaCl)] ×100% (Jiao et al. [2015]).

S. aureus ATCC43300 [3] = test: Effect of temperature on activity (MIC); assay type: cell-based, Staphylococcus aureus; settings: then MIC assay
Protocol: as §1, §2

S. aureus ATCC43300 [4] = test: Postantibiotic effect (PAE); assay type: cell-based, Staphylococcus aureus; settings: 2 h exposure at 37 °C, 1 × 10^8 CFU/ml, drug removed by 1:10^3 dilution, mean ± SD, n = 3
Protocol: After 2 h, the drug was removed by diluting 1:10^3 into the MHB and incubated at 37 °C, 250 rpm. The sample was taken to plate counting every 1 h until the bacterial cultures become turbid. The PAE was calculated by the following formula: PAE = T − C, where T is the time needed for the count of CFU in the test culture to increase 1 log10 (10-fold) above the 0 h and C is the time needed for the count of CFU in the untreated control culture to increase 1 log10 above the 0 h (Giguère et al. [2012]).

## CC[C@H](C)[C@@H]1NC(=O)[C@H](CO)NC(=O)[C@H](CCCCN)NC(=O)[C@@H]2CSSC[C@@H](C(=O)N[C@@H](Cc3ccc(O)cc3)C(=O)O)NC(=O)[C@H](CCCCN)NC(=O)[C@@H]3CSSC[C@H](NC(=O)[C@H](CCCNC(=N)N)NC(=O)[C@H](CC(C)C)NC(=O)[C@H](CC(=O)O)NC(=O)[C@H](CC(=O)O)NC(=O)[C@H](CCC(=O)O)NC(=O)[C@H](CC(N)=O)NC(=O)[C@H](Cc4c[nH]c5ccccc45)NC(=O)[C@@H]4CCCN4C(=O)CNC(=O)[C@H](CC(N)=O)NC(=O)[C@@H](NC(=O)CNC(=O)[C@H](Cc4ccccc4)NC(=O)CN)CSSC[C@H](NC(=O)[C@H](Cc4ccc(O)cc4)NC(=O)CNC(=O)CNC(=O)[C@H](CCCCN)NC(=O)[C@H](Cc4ccc(O)cc4)NC(=O)CNC(=O)[C@H](CCCCN)NC1=O)C(=O)N[C@@H](C)C(=O)N[C@@H](CCCCN)C(=O)NCC(=O)NCC(=O)N[C@@H](Cc1ccccc1)C(=O)N[C@@H](C(C)C)C(=O)N3)C(=O)N[C@@H](CCCNC(=N)N)C(=O)N[C@@H](CC(N)=O)C(=O)N[C@@H](Cc1c[nH]cn1)C(=O)N2 [H2] (H-GFGCNGPWNEDDLRCRNHCKSIKGYKGGYCAKGGFVCKCY-OH; disulfide 4-30, 15-37, 19-39 (inferred); N-terminus and C-terminus assumed)
S. aureus ATCC43300 [1]; pH 2, 37 °C for 4 h
  MIC after incubation at pH2: 0.114 μM
S. aureus ATCC43300 [1]; pH 4, 37 °C for 4 h
  MIC after incubation at pH4: 0.114 μM
S. aureus ATCC43300 [1]; pH 6, 37 °C for 4 h
  MIC after incubation at pH6: 0.114 μM
S. aureus ATCC43300 [1]; pH 8, 37 °C for 4 h
  MIC after incubation at pH8: 0.114 μM
S. aureus ATCC43300 [1]; pH 10, 37 °C for 4 h
  MIC after incubation at pH10: 0.114 μM
S. aureus ATCC43300 [2]
  MIC after Trypsin: 0.454 µM (≈ 2.01 µg/mL)
Mice red blood cells
  hemolytic activity: little or no hemolytic activity
S. aureus ATCC43300 [3]; 1 h at 4 °C in deionized water
  MIC after incubation at 4 °C: 0.114 µM (≈ 0.505 µg/mL)
S. aureus ATCC43300 [3]; 1 h at 20 °C in deionized water
  MIC after incubation at 20 °C: 0.114 µM (≈ 0.505 µg/mL)
S. aureus ATCC43300 [3]; 1 h at 40 °C in deionized water
  MIC after incubation at 40 °C: 0.114 µM (≈ 0.505 µg/mL)
S. aureus ATCC43300 [3]; 1 h at 60 °C in deionized water
  MIC after incubation at 60 °C: 0.114 µM (≈ 0.505 µg/mL)
S. aureus ATCC43300 [4]; 1× MIC
  PAE: 0.63 h and 0.63 ± 0.13 h
S. aureus ATCC43300 [4]; 2× MIC
  PAE: 1.75 ± 0.04 h
